Laboratory results taken from ChEMBL document CHEMBL4118172, “Design and synthesis of 2,6-disubstituted-8-amino imidazo[1,2a]pyridines, a promising privileged structure” (Bioorg Med Chem, 2018).
pKi: −log10 of the molar value.

Assays:
[1] = Cytotoxicity against human SH-SY5Y cells after 24 to 72 hrs by MTT assay; assay type: cell-based
[2] = target: Adenosine receptor A2a (Homo sapiens, UniProt P29274); assay: Displacement of [3H]-ZM-241385 from human adenosine A2A receptor expressed in HEK293 cell membranes after 1 hr by scintillation counting analysis
Sequence of Adenosine receptor A2a (P29274 whole entry): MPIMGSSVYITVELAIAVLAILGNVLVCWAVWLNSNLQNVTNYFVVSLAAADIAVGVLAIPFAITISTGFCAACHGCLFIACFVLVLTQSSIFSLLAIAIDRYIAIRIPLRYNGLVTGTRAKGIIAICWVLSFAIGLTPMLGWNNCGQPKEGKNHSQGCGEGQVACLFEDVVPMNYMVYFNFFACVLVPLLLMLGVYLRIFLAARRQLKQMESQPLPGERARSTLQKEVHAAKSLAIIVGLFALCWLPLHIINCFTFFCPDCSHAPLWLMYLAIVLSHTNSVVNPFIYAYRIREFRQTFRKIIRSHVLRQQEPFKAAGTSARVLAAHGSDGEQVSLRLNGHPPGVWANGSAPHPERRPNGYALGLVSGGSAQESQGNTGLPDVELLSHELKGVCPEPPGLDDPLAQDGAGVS

| pKi [2] | SMILES | CC50 [1] [µM] |
| --- | --- | --- |
| < 5.00 | COc1ccc(-c2cn3cc(C(=O)NCCCN4CCNCC4)cc(N)c3n2)cc1OC | > 100 |
| < 5.00 | c1coc(-c2cn3ccccc3n2)c1 | > 100 |
| < 5.00 | c1ccc(-c2cn3cc(-c4ccco4)ccc3n2)cc1 | > 100 |
| < 5.00 | COc1ccc(-c2cn3cc(C(=O)NCCCN4CCN(C)CC4)cc(N)c3n2)cc1OC | > 100 |
| < 5.00 | COCCOc1ccc(N2CCN(CCNC(=O)c3cc(N)c4nc(-c5ccc(OC)c(OC)c5)cn4c3)CC2)cc1 | 31.8 |
| < 5.00 | Nc1cc(-c2ccccc2)cn2cc(-c3ccco3)nc12 | 0.5 |
| 6.93 | COc1ccc(-c2cn3cc(-c4ccco4)cc(N)c3n2)cc1OC | 36.4 |
| 6.38 | Nc1cc(-c2ccco2)cn2cc(-c3ccccc3)nc12 | 26 |
| < 5.00 | COc1ccc(-c2cn3cc(C#Cc4ccccc4)cc(N)c3n2)cc1OC | 66.7 |
| < 5.00 | Nc1cccn2cc(-c3ccco3)nc12 | > 100 |

The next lines start with the molecule.

| SMILES | pKi [2] | CC50 [1] [µM] |
| --- | --- | --- |
| COc1ccc(-c2cn3cc(C(=O)NCCCN4CCCCC4)cc(N)c3n2)cc1OC | < 5.00 | 49.6 |
| COc1ccc(-c2cn3cc(-c4ccco4)ccc3n2)cc1OC | 6.62 | 30 |
| c1ccc(-c2ccc3nc(-c4ccco4)cn3c2)cc1 | < 5.00 | 0.42 |
| COc1ccc(-c2cn3cc(C(=O)NCCCN4CCOCC4)cc(N)c3n2)cc1OC | < 5.00 | > 100 |
| COc1ccc(-c2cn3cc(C(=O)NCCc4ccc(O)cc4)cc(N)c3n2)cc1OC | < 5.00 | 26.9 |
| COc1ccc(-c2cn3cc(CCc4ccccc4)cc(N)c3n2)cc1OC | < 5.00 | 50.4 |
| COCCOc1ccc(N2CCN(C(=O)c3cc(N)c4nc(-c5ccc(OC)c(OC)c5)cn4c3)CC2)cc1 | < 5.00 | > 100 |
| c1coc(-c2ccc3nc(-c4ccco4)cn3c2)c1 | 5.79 | 3 |
| Nc1cc(-c2ccco2)cn2cc(-c3ccco3)nc12 | < 5.00 | 2.27 |
